Reference: US20220288040A1, “USE OF PYRVINIUM FOR THE TREATMENT OF A RAS PATHWAY MUTATED ACUTE MYELOID LEUKEMIA” (INSERM (INSTITUT NATIONAL DE LA SANTÉ ET DE LA RECHERCHE …, priority 2019, published 2022)

Tests used:
[1] = tested on: RAS pathway activated TF-1, Ba/F3 and UT-7 cells; assay: Trametinib dose-range cytotoxicity in RAS pathway activated cell lines; type: cell-based, human; murine; conditions: three fold-dilutions dose-range
Protocol: UptiBlue: Cells were seeded in 100 μl of culture medium for 48 hours. […] The UptiBlue viable cell-counting reagent (Interchim, Montluçon, France) was then added for 4 hours and fluorescence was measured with a Typhoon 8600 scanner (GE Healthcare BioSciences, Buc, France).

NRAS^G12A-mutated AML = type: in vivo; conditions: person, trametinib 2 mg/d, hydroxycarbamide 2000 mg daily

Compound	cytotoxicity in RAS activated cells compared to isogenic control cells [1]	toxicity in patient (NRAS^G12A-mutated AML)	white blood cell count / leukocytosis (NRAS^G12A-mutated AML; second course)
CC(=O)Nc1cccc(-n2c(=O)n(C3CC3)c(=O)c3c(Nc4ccc(I)cc4F)n(C)c(=O)c(C)c32)c1 [trametinib]	marked enhancement of trametinib cytotoxicity	neurological toxicity	–
NC(=O)NO [hydroxycarbamide]	–	hematological toxicity	limited efficacy
